# In patent US20250051762A1, “PLATFORM USING DNA-ENCODED SMALL MOLECULE LIBRARIES AND RNA SELECTION TO DESIGN SMALL MOLECULES THAT TARGET RNA” (University of Florida Research Foundation, Incorporated, priority 2021, published 2025):
# Key:
# 3×3 ILL = assay: 2DCS selection of microarray-immobilized compounds with 32P-labeled 3×3 ILL, Hit-StARTS analysis of RNA-seq; format: binding; settings: Zobs >4
# Protocol: The interaction landscape for the ten representative DEL compounds emerging from the FACS screen were then defined by 2DCS (22). In 2DCS, small molecules are site-specifically conjugated to a microarray surface and then probed for binding to an RNA library under highly stringent conditions (FIGS. 2-B & S6). That is, the array is co-incubated with a radioactively labeled RNA library and an excess of competitor oligonucleotides that mimic regions common to all library members. […] To enable site-specific immobilization of compounds 1-10, a C-terminal alkyne handle was installed for CuAAC click (30) coupling to azide-displaying array surfaces. Installation of the alkyne was accomplished by coupling of bromoacetic acid onto rink amide resin followed by nucleophilic displacement with propargylamine prior to the synthesis of the SPDEL compounds (FIG. 2A).
# All ten compounds bound to the 3×3 ILL under the highly stringent conditions described above, almost all dose-dependently (FIG. 2B). The RNAs bound to each small molecule were harvested, reverse transcribed into DNA, and sequenced by RNA-seq. The resulting data set was statistically analyzed by using High Throughput Structure-Activity Relationships Through Sequencing (Hit-StARTS) (31) in which the relative frequency of each selected RNA is compared to the frequency of that RNA in the starting library (pooled population comparison). (31) The statistical significance of the enrichment of selected RNAs is quantified by Zobs, which correlates with affinity and selectivity. (31) Here, a cut-off of Zobs >4 was employed, which was empirically determined from measured affinities via evaluation of compound 9 binding with potential RNA motifs extracted from the 2DCS (FIGS. 2-B, 13, & 14). […] This cut-off afforded, on average, 60±40 (range: 6-155) preferred, or privileged, RNA 3D folds for each compound. Compound 6 bound to largest number of RNA targets (n=155) while compound 9 bound the fewest (n=6) (FIG. 14). […]
# pri-miR-27a = assay: RT-qPCR of pri- and mature miR-27a in HeLa cells; format: cell-based, human
# Protocol: Cell lines. Compounds were tested in MDA-MB-231 TNBC cells (HTB-26, ATCC), LNCaP metastatic prostate cancer cells (gifted from Junli Luo lab), MCF-7 (HTB-22, ATCC) breast cancer cells, HeLa cervical adenocarcinoma cells (CCL-2, ATCC), and MCF-10a, a model of healthy breast epithelial cells (CRL-10317, ATCC).
# Cell culture and compound treatment. All cells were maintained at 37° C. with 5% CO2. MDA-MB-231 and LNCaP cells were cultured in RPMI 1640 medium with L-glutamine & 25 mM HEPES (Corning) supplemented with 10% (v/v) fetal bovine serum (FBS; Sigma) and 1× (v/v) Antibiotic-Antimycotic solution (Corning). MCF-7 and HeLa cells were cultured in DMEM medium with 4.5 g/L glucose (Corning), supplemented with 10% FBS, 1× (v/v) Glutagro (Corning), and 1× (v/v) Antibiotic-Antimycotic solution. […]
# Analysis of mRNA abundance: Each cell line was grown as a monolayer in 12- or 24-well plates and treated as described in “Cell culture and compound treatment”. […] Relative abundance of mature miRNAs was calculated by normalizing to RNU6, and relative abundance for pri-miRNAs and mRNAs was calculated by normalizing to 18S ribosomal RNA, using the AAC, method. […]
smiles,measurement,setting,value
C#CCN(CC(N)=O)C(=O)C[C@H](Cc1c[nH]c2ccccc12)NC(=O)[C@@H]1C[C@H](NC(=O)Cn2c(=O)[nH]c3ccccc3c2=O)CN1 [Compound 9],number of RNA motifs bound that are unique to the compound,3×3 ILL,2
same,dose with significant inhibition of miR-27a processing,pri-miR-27a,100 nM
